Laboratory results reported in a compilation of properties of binary mixtures (doi:10.1016/j.fluid.2020.112621).

Experiment: xn = mol fraction of the nth substance listed
Conditions: 101 kPa

CCCC(=O)[O-].CC[NH+](CC)CCO + CCCC[n+]1ccn(C)c1.COP(=O)([O-])OC
viscosity [mPa·s]
Conditions	x1 = 0.1023	x1 = 0.1989	x1 = 0.3026	x1 = 0.3985	x1 = 0.498	x1 = 0.6001	x1 = 0.6613	x1 = 0.8006	x1 = 0.8788	x1 = 1
278.15 K	2058	1152.2	671	445	322.4	255.2	231	–	191	–
283.15 K	1309.9	764	459	311.5	228.5	–	165.4	140.9	136.5	–
288.15 K	–	522	322.9	223.4	165.9	133.2	–	103.2	99.6	96.9
293.15 K	587	367	233	–	–	–	90.5	77.1	–	71.6
298.15 K	411	–	172.1	122.9	93.3	75.8	69	58.8	56.4	54
303.15 K	294.9	–	129.8	94	72	–	53.58	45.58	43.6	41.42
308.15 K	216.6	146.7	99.8	–	56.55	46.34	42.29	35.94	34.28	32.34
313.15 K	162.7	112.5	–	57.98	–	37.1	–	28.77	27.36	25.64
318.15 K	–	87.9	61.99	46.61	36.5	–	27.53	–	22.14	20.63
323.15 K	96.9	–	49.98	37.99	29.93	24.77	–	19.2	18.14	16.82
328.15 K	76.7	56.15	40.85	31.37	24.84	–	18.87	15.97	15.04	13.87
333.15 K	61.58	45.81	33.8	26.18	20.85	17.35	15.88	13.42	12.6	11.56
338.15 K	50.11	37.83	28.27	22.09	17.68	14.74	–	–	10.66	–
343.15 K	41.29	–	23.89	–	15.13	–	11.56	9.74	9.09	8.27
348.15 K	34.41	26.65	20.38	16.18	–	10.92	9.99	8.41	7.82	7.08
353.15 K	28.99	22.7	–	14.02	11.35	9.51	8.69	–	–	–
358.15 K	24.65	19.51	15.22	–	9.95	8.33	–	6.39	5.92	–
363.15 K	21.15	16.9	13.3	10.76	8.77	7.36	6.72	5.63	5.2	4.65
368.15 K	18.3	14.76	–	9.52	7.78	6.53	5.97	4.99	4.6	–
373.15 K	15.96	12.97	10.37	8.47	6.95	5.84	5.33	4.45	4.08	3.61

CCCC[n+]1ccn(C)c1.COP(=O)([O-])OC + CC(=O)O.CC(=O)[O-].CC[NH+](CC)CCO
x2 = 0
Conditions	viscosity [mPa·s]
278.15 K	3503
288.15 K	1361.1
293.15 K	895
303.15 K	426
308.15 K	305.8
313.15 K	224.9
318.15 K	168.9
323.15 K	129.4
328.15 K	100.9
333.15 K	79.9
338.15 K	64.25
343.15 K	52.35
348.15 K	43.18
363.15 K	25.86
368.15 K	22.22
373.15 K	19.25

CCC(=O)O.CCC(=O)[O-].CC[NH+](CC)CCO + CCCC[n+]1ccn(C)c1.COP(=O)([O-])OC
viscosity [mPa·s]
Conditions	x1 = 0.08	x1 = 0.1549	x1 = 0.2364	x1 = 0.3281	x1 = 0.4183	x1 = 0.4953	x1 = 0.6252	x1 = 0.7416	x1 = 0.8667	x1 = 1
278.15 K	–	1099.1	655	428	329	294	241.4	208.2	184.2	244
283.15 K	1248.1	726	–	297	230.3	–	–	–	131	169
288.15 K	822	494	311	211.1	165.3	147.5	–	107.1	95.3	120.7
293.15 K	559	346	223.3	–	121.5	108.6	91.7	79.5	–	88.3
298.15 K	391	248.6	164.2	114.9	91.4	81.8	69.5	–	53.8	–
303.15 K	–	183.2	–	87.6	–	62.8	53.7	46.6	–	50.6
308.15 K	206.6	137.9	94.7	68	–	49.2	42.2	36.7	–	39.4
313.15 K	155.3	105.8	73.9	–	43.7	–	33.7	29.3	26.3	31.2
318.15 K	119	82.7	58.7	43.2	35.28	31.69	–	23.81	21.38	25.1
323.15 K	92.7	65.7	–	35.21	28.91	–	22.51	19.58	17.6	20.5
328.15 K	73.5	52.95	–	29.06	23.98	21.58	18.74	–	–	16.89
333.15 K	59.07	43.24	31.98	24.27	20.13	–	15.77	13.7	–	–
338.15 K	–	35.76	–	20.49	17.07	15.33	–	–	10.47	11.89
343.15 K	39.67	29.9	22.63	17.47	14.6	–	11.5	9.98	8.98	10.12
348.15 K	33.08	–	19.32	15.03	–	11.29	–	8.63	–	8.68
353.15 K	27.89	–	16.64	13.04	–	9.81	8.67	7.52	6.75	7.5
358.15 K	23.73	18.56	14.45	11.4	–	–	–	6.59	5.91	6.52
363.15 K	20.39	16.1	12.65	10.04	8.5	7.58	6.72	–	5.21	–
368.15 K	–	–	11.15	8.9	7.55	6.73	5.98	–	4.62	5.01
373.15 K	15.41	12.4	9.89	7.94	6.75	6.01	5.34	–	4.11	–
